Experiments:
Format in all cases: in vivo, nude mice
A549 cells [1] = experiment: A549 xenograft large tumors, ULK inhibitor alone versus carboplatin; conditions: A549 large tumors; each Compound 14 cohort: 20 mg/kg twice daily, 30 mg/kg twice daily, 40 mg/kg once daily; 32 days
Method: A549 cells (5M cells) were injected bilaterally into the flanks of forty-six nude mice to create tumor xenografts in order to assess the efficacy of Compound 14 in treating larger non-small cell lung cancer tumors compared to carboplatin, the current standard of care therapy for non-small cell lung cancer. After 40 days of letting tumor cells proliferate (at which point tumors were over 200 mm^3 in volume), administration of carboplatin or Compound 14 was initiated. One cohort of twelve mice received 20 mg/kg twice daily doses of Compound 14, one cohort of ten mice received 30 mg/kg twice daily doses of Compound 14, one cohort of seven mice received 25 mg/kg doses of carboplatin every three days, one cohort of seven mice received 40 mg/kg once daily doses of Compound 14, and the remaining ten mice were treated with vehicle. Treatment and monitoring was continued until day 72 post inoculation of tumor cells (32 days of treatment).

MIA PaCa-2 cells = experiment: MIA PaCa-2 xenografts, ULK inhibitor alone versus gemcitabine; conditions: day 42, Compound 14 20 mg/kg twice daily, gemcitabine dose not given
Method: MIA PaCa-2 cells were injected bilaterally into the flanks of nude mice to create tumor xenografts in order to assess the efficacy of Compound 14 in treating pancreatic cancer tumors compared to gemcitabine, a current standard of care therapy for pancreatic cancer. After 3 days of letting tumor cells proliferate (at which point tumors were ˜100 mm^3 in volume), administration of gemcitabine or Compound 14 was initiated. One cohort received 20 mg/kg twice daily doses of Compound 14, one cohort received gemcitabine, and the remaining cohort was treated with vehicle. Treatment and monitoring were continued until day 42 post inoculation of tumor cells (30 days of treatment).

NCI-H460 cells = experiment: NCI-H460 xenografts treated with ULK inhibitor alone; conditions: 30 mg/kg twice daily
Method: NCI-H460 cells (2.5M cells) were injected bilaterally into the flanks of twenty-four nude mice to create tumor xenografts in order to assess the efficacy of Compound 14 in treating non-small cell lung cancer tumors. After 14 days of letting tumor cells proliferate (at which point tumors had reach ˜200 mm^3 in volume), one cohort of twelve mice was administered 30 mg/kg twice daily doses of Compound 14, and the remaining mice administered vehicle alone. Treatment and monitoring were continued until day 23 post inoculation of tumor cells (9 days of treatment).

A549 cells [2] = experiment: A549 xenografts, ULK inhibitor alone and in combination with carboplatin
Method: A549 cells (5M cells) were injected bilaterally into the flanks of thirty-six nude mice to create tumor xenografts in order to assess the efficacy of Compound 14 in treating non-small cell lung cancer tumors both alone and in combination with carboplatin, the current standard of care therapy for non-small cell lung cancer. After 11 days of letting tumor cells proliferate (at which point tumors were ˜50 mm^3 in volume), administration of carboplatin, Compound 14, or combinations began. One cohort of six mice received 20 mg/kg twice daily doses of Compound 14 alone, one cohort of six mice received 30 mg/kg twice daily doses of Compound 14 alone, one cohort of six mice received 25 mg/kg doses of carboplatin every three days, one cohort of six mice received 20 mg/kg twice daily doses of Compound 14 in conjunction with 25 mg/kg doses of carboplatin every three days, one cohort of six mice received 30 mg/kg twice daily doses of Compound 14 in conjunction with 25 mg/kg doses of carboplatin every three days, and the remaining six mice were treated with vehicle. Treatment and monitoring was continued until day 53 post inoculation of tumor cells (42 days of treatment).

CNC(=O)c1ccccc1Nc1nc(Nc2cc(OC)c(OC)c(OC)c2)ncc1Br [Compound 14]
tumor growth compared with the start of treatment (A549 cells [1]): little to no growth, or even a decrease in tumor volume
final tumor volume (MIA PaCa-2 cells): ~800 mm^3
% growth of tumor relative to the start of treatment (NCI-H460 cells): clear reduction in tumor growth
average tumor volume (NCI-H460 cells; 9 days of treatment): substantially reduced growth during the monitoring period compared to the control
tumor growth (NCI-H460 cells; after 3 days of treatment): tumor growth had virtually stopped
less tumor mass than vehicle treated mice (NCI-H460 cells; day 9 post treatment): ~50%
final tumor average volume (A549 cells [2]; 20 mg/kg twice daily alone, day 53): ~150 mm^3
average tumor mass at the end of the study (A549 cells [2]; 30 mg/kg twice daily alone, 42 days of treatment): smallest tumors
tumor volume at the end of the study (A549 cells [2]; 30 mg/kg twice daily alone, day 53): ~50 mm^3
average tumor mass at the end of the study (A549 cells [2]; both combinations: Compound 14 20 or 30 mg/kg twice daily with carboplatin 25 mg/kg every three days, 42 days): smallest tumors
tumor volume at the end of the study (A549 cells [2]; both combinations: Compound 14 20 or 30 mg/kg twice daily with carboplatin 25 mg/kg every three days, day 53): ~50 mm^3
tumor growth compared to the control (A549 cells [2]; monotherapy: carboplatin 25 mg/kg every three days, Compound 14 20 mg/kg twice daily): markedly reduced growth compared to the control

From patent US20230130766A1 (SALK INSTITUTE FOR BIOLOGICAL STUDIES, priority 2020, published 2023)
